Test results: publication PMC6197744, “Triazolo[4,5-d]pyrimidines as Validated General Control Nonderepressible 2 (GCN2) Protein Kinase Inhibitors Reduce Growth of Leukemia Cells” (Computational and Structural Biotechnology Journal, 2018)

Tests used:
MALME-3M = assay: NCI-60 one-dose screen; format: cell-based, human; conditions: 48 h; for inhibition at 10 µM: Homo sapiens, Melanoma MALME-3M, read-out: Percent growth inhibition; for increase in cell growth: melanoma cell line MALME-3 M, 10 μM
Protocol: (§1) Compounds 1 and 2 were submitted to the National Cancer Institute NCI-60 Tumor Cell Screening Program (NCI number 800,700 and 800,701, respectively) for evaluation against the 60 cell line NCI panel at a single dose of 10 μM. […] Leukemia and breast cancer cell lines comprised the only cancer groups that were uniformly sensitive to both 1 and 2, with the greatest sensitivity seen in the leukemia SR cell line.
(§2) Compounds 1 and 2 were submitted to the NCI for growth inhibition screening against its panel of 60 cancer cell lines. The NCI screening protocol has extensively been described [[53], [54], [55], [56]]. Briefly, cancerous cell lines were grown in RPMI 1640 medium containing 5% fetal bovine serum and 2 mM L-glutamine. Depending on the doubling time of each cell line, 5000–40,000 cells were seeded in 96-well plates for 24 h. Cells were then treated with compounds 1 or 2 at a concentration of 10 μM and incubated for 48 h at 37 °C in a humidified atmosphere containing 5% CO2. The cells were then fixed and stained with sulforhodamine B (SRB) to determine their viability. The data were analyzed using a program called COMPARE to determine the percent growth inhibition of each compound.

[1] = tested on: phosphorylation of eIF2α (p-eIF2α); assay: p-eIF2α reduction in amino acid deprived HEK293T cells (Western blot); format: cell-based; conditions: Homo sapiens, HEK-293T, amino acid deprived 4 h
Protocol: Compounds 1–9 were screened in a radiometric […] kinase assay against human GCN2 and other kinases involved in the UPR and ISR pathways (Table 1). […] The most soluble of the potent tool compounds (1 and 2) were selected for in vitro cell-based assays where the phosphorylation of eIF2α (p-eIF2α) was used as a readout for GCN2 inhibition.
HEK293T cells were purchased from the American Type Culture Collection and were cultured in Dulbecco's modified Eagle's medium (DMEM; GIBCO-11995) supplemented with 10% fetal bovine serum (FBS) (Corning™ 35015CV) and antibiotics (penicillin, 10,000 UI/ml and streptomycin, 10,000 UI/ml) (Life Technologies, 15,140,122). When indicated, cells were deprived of amino acids for 4 h with DMEM (DMEM; GIBCO-21013024) containing no glutamine, no methionine, no cysteine, and no FBS. Upon starvation, cells were treated with DMSO or compound. All cell lines were maintained in humidified incubators at 37 °C under 5% CO2.
Cells were lysed for 10 min on ice with RIPA lysis buffer (50 mM Tris (pH 8), 150 mM NaCl, 1% NP-40, 0.5% sodium deoxycholate, 0.1% SDS, containing Protease Inhibitor Cocktail (PIC) (ROCHE, 11836170001), 100 mM NaF, 2 mM NaVO4, 1 mM Na B-glycerophosphate). […] IC50s were calculated using dose response – Inhibition nonlinear regression algorithm [[inhibitor] vs. response] in GraphPad Prism 7 (GraphPad Software).

786-0 = assay: NCI-60 one-dose screen; format: cell-based; conditions: Homo sapiens; Renal 786-0, 10 μM, 48 h; read-out: Percent growth inhibition
Protocol: as §1, §2

NCI-H226 = assay: NCI-60 one-dose screen; format: cell-based; conditions: Homo sapiens, NCI-H226, 48 h, Non-Small Cell Lung NCI-H226, 10 μM, read-out: Percent growth inhibition
Protocol: as §1, §2

HT29 = assay: NCI-60 one-dose screen; format: cell-based; conditions: Homo sapiens, HT-29, 48 h, Colon HT29, 10 μM, read-out: Percent growth inhibition
Protocol: as §1, §2

HCC-2998 = assay: NCI-60 one-dose screen; format: cell-based; conditions: Homo sapiens; Colon HCC-2998, 10 μM, 48 h; read-out: Percent growth inhibition
Protocol: as §1, §2

OVCAR-4 = assay: NCI-60 one-dose screen; format: cell-based; conditions: Homo sapiens; Ovarian OVCAR-4, 10 μM, 48 h; read-out: Percent growth inhibition
Protocol: as §1, §2

ACHN = assay: NCI-60 one-dose screen; format: cell-based; conditions: Homo sapiens, Renal ACHN, 48 h, read-out: Percent growth inhibition
Protocol: as §1, §2

NCI-H522 = assay: NCI-60 one-dose screen; format: cell-based; conditions: Homo sapiens; Non-Small Cell Lung NCI-H522, 10 μM, 48 h; read-out: Percent growth inhibition
Protocol: as §1, §2

T-47D = assay: NCI-60 one-dose screen; format: cell-based; conditions: Homo sapiens, T47D, Breast T-47D, 48 h, read-out: Percent growth inhibition
Protocol: as §1, §2

UO-31 = assay: NCI-60 one-dose screen; format: cell-based; conditions: Homo sapiens; Renal UO-31, 10 μM, 48 h; read-out: Percent growth inhibition
Protocol: as §1, §2

LOXIMVI = assay: NCI-60 one-dose screen; format: cell-based; conditions: Homo sapiens, LOX IMVI, Melanoma LOXIMVI, 48 h, read-out: Percent growth inhibition
Protocol: as §1, §2

SNB-19 = assay: NCI-60 one-dose screen; format: cell-based; conditions: Homo sapiens; CNS SNB-19, 10 μM, 48 h; read-out: Percent growth inhibition
Protocol: as §1, §2

PC-3 = assay: NCI-60 one-dose screen; format: cell-based; conditions: Homo sapiens; Prostate PC-3, 10 μM, 48 h; read-out: Percent growth inhibition
Protocol: as §1, §2

NCI-H460 = assay: NCI-60 one-dose screen; format: cell-based; conditions: Homo sapiens; Non-Small Cell Lung NCI-H460, 10 μM, 48 h; read-out: Percent growth inhibition
Protocol: as §1, §2

SF-268 = assay: NCI-60 one-dose screen; format: cell-based; conditions: Homo sapiens; CNS SF-268, 10 μM, 48 h; read-out: Percent growth inhibition
Protocol: as §1, §2

KM12 = assay: NCI-60 one-dose screen; format: cell-based; conditions: Homo sapiens; Colon KM12, 10 μM, 48 h; read-out: Percent growth inhibition
Protocol: as §1, §2

HOP-62 = assay: NCI-60 one-dose screen; format: cell-based; conditions: Homo sapiens; Non-Small Cell Lung HOP-62, 10 μM, 48 h; read-out: Percent growth inhibition
Protocol: as §1, §2

M14 = assay: NCI-60 one-dose screen; format: cell-based; conditions: Homo sapiens; Melanoma M14, 10 μM, 48 h; read-out: Percent growth inhibition
Protocol: as §1, §2

SMILES: CCn1cc(Nc2ncc3nnn(-c4ccc(C(=O)OC)cc4)c3n2)cn1 [Compound 1, Methyl 4-(5-((1-ethyl-1H-pyrazol-4-yl)amino)-3H-[1,2,3]triazolo[4,5-d]pyrimidin-3-yl)benzoate]
- inhibition at 10 µM (MALME-3M): -27.7%
- increase in cell growth (MALME-3M): 27.7%
- IC50 [1]: 52.6 nM
- inhibition at 10 µM (786-0): -6.68%
- inhibition at 10 µM (NCI-H226): 34.6%
- inhibition at 10 µM (HT29): 47%
- inhibition at 10 µM (HCC-2998): -3.6%
- inhibition at 10 µM (OVCAR-4): -12%
- inhibition at 10 µM (ACHN): 1.27%
- inhibition at 10 µM (NCI-H522): 24.3%
- inhibition at 10 µM (T-47D): 25.8%
- inhibition at 10 µM (UO-31): 10.4%
- inhibition at 10 µM (LOXIMVI): 34.9%
- inhibition at 10 µM (SNB-19): -9.34%
- inhibition at 10 µM (PC-3): 16.7%
- inhibition at 10 µM (NCI-H460): 0.26%
- inhibition at 10 µM (SF-268): 0.6%
- inhibition at 10 µM (KM12): 7.33%
- inhibition at 10 µM (HOP-62): 21.1%
- inhibition at 10 µM (M14): 17%

SMILES: CCOc1ccc(-n2nnc3cnc(Nc4cnn(CC)c4)nc32)cc1 [Compound 2, 3-(4-Ethoxyphenyl)-N-(1-ethyl-1H-pyrazol-4-yl)-3H-[1,2,3]triazolo[4,5-d]pyrimidin-5-amine]
- inhibition at 10 µM (MALME-3M): -37.2%
- increase in cell growth (MALME-3M): 37.2%
- IC50 [1]: 138 nM
- inhibition at 10 µM (786-0): 21.7%
- inhibition at 10 µM (NCI-H226): 46.3%
- inhibition at 10 µM (HT29): 39.7%
- inhibition at 10 µM (HCC-2998): -2.67%
- inhibition at 10 µM (OVCAR-4): -14.7%
- inhibition at 10 µM (ACHN): 17.8%
- inhibition at 10 µM (NCI-H522): 31.8%
- inhibition at 10 µM (T-47D): 20.7%
- inhibition at 10 µM (UO-31): 3.24%
- inhibition at 10 µM (LOXIMVI): 45.7%
- inhibition at 10 µM (SNB-19): -0.19%
- inhibition at 10 µM (PC-3): 23.4%
- inhibition at 10 µM (NCI-H460): 5.14%
- inhibition at 10 µM (SF-268): 12.7%
- inhibition at 10 µM (KM12): 25.9%
- inhibition at 10 µM (HOP-62): 15.7%
- inhibition at 10 µM (M14): 10.9%
